# Tests used:
# P388 = conditions: cited from earlier work
# [1] = in words; cited from earlier work
# [2] = cited from earlier work
# cancer = test: anticarcinogenic activity in vivo and toxicity, general statement on the biological activity studies; conditions: in words; for toxicity: in vivo
# Description: This makes them especially ideal for used as agents for the therapeutic treatment of cancer in its diverse manifestations and, especially, in cases of leukemia.
# P388 leukemic tumor = test: P388 antitumoral model in vivo, survival of leukemic mice (%C/T); set-up: species or system mouse
# Procedure: Description of the P388 Antitumoral Model
# Normally, 1×10^6 cells in ascitic fluid was implanted. i.p. in CD2 F1 mice. Treatment with the agent tested i.p. began one day after the tumor had been implanted and it is continued daily up to a total of 5 injections for synthetic products and of 9 injections for raw natural products. The results are expressed as percentage of the control survival time.
# CDFl mice weighing 18-22 gr (+/-3 gr) were implanted on day 0 of the test period 0.1 ml. of a dilution of 1.0×10^7 tumor cells coming from DBA/2N mice used for the propagation of the tumor.
# On day 1 of the test period the animals were grouped at randam in groups of six animals. Each group is weighed and the average weight is written down. Each compound to be tested in duluted in 4 lvels of dosis for each multidose test as of the determiantion of the highest non-toxic dose (v.g. 400 mg/kg; 100 mg/kg; 10 mg/kg.)
# Administration of the test compounds is started on day 1 using volumns of 1/2 drug injected i.p. Injections are given on days 1 to 9 of the test period, unless it is indicated to the contrary. The animals are weighed on day 5, which is the one which in this system is considered the day of toxicity. Toxicity in this test system is defined as: […]
# A. 34% deaths up to day 5--acute toxicity
# B. C/T <85% --chronic toxicity
# C. A negative average of the weight change of the animals >4 g up to day 5--chronic toxicity
# The data obtained upon testing the compounds in vivo in comparison with the P388 leukemic tumor model in mice are shown in the following table:
# Where %C/T means average survival of the tested group/average survival of […]
# MEL-28 = test: in vitro test, MEL-28; assay type: cell-based; conditions: Homo sapiens, SK-MEL-28
# Description: (§1) On the other hand, the results of the tests in vitro carried out on compounds (IIIa) and (IIIb) were the following: […]
# P-388 = test: in vitro test, P-388; assay type: cell-based; conditions: Mus musculus, P388
# Description: as §1
# A-549 = test: in vitro test, A-549; assay type: cell-based; conditions: Homo sapiens, A549
# Description: as §1
# HT-29 = test: in vitro test, HT-29; assay type: cell-based; conditions: Homo sapiens
# Description: as §1
# [3] = compared with CC-1065; cited from earlier work
smiles,measurement,setting,value
O=C(Nc1ccc2[nH]c(C(=O)N3CC4CC45C3=CC(=O)c3ccccc35)cc2c1)c1cc2ccccc2[nH]1 (stereo not drawn) [CBI-Ind2],results in the P388 model in vivo,P388,very good results in the P388 model in vivo
COc1c(O)c2c(c3cc(C(=O)N4CCc5c4c(O)c(OC)c4[nH]c(C(=O)N6CC7CC78C6=CC(=O)c6[nH]cc(C)c68)cc54)[nH]c13)CCN2C(N)=O (stereo not drawn) [CC-1065],cytotoxic strength,[1],extremely strong cytoxine
same,toxicity (delayed deaths),"[2]; mice, therapeutic doses","high toxicity, producing delayed deaths in mice at therapeutic doses"
"COC(=O)c1cn(C)c2c(O)cc3c(c12)C(CCl)CN3C(=O)c1cc2cc(OC)c(OC)c(OC)c2[nH]1 (stereo not drawn) [Compound (V), methyl 6-(5,6,7-trimethoxy-1H-indol-2-carbonyl)-8-chloromethyl-4-hydroxy-3-methyl-3,6,7,8-tetra-hydropyrrololo[3,2-e]indol-1-carboxylate]",toxicity,cancer,very low toxicity
same,anticarcinogenic activity in vivo,cancer,high anticarcinogenic activity in vivo
same,%C/T (average survival of the tested group/average survival of the controls and untreated ones),P388 leukemic tumor; 0.050 mg/kg i.p.,133.9%
same,%C/T activity class (significance mark),P388 leukemic tumor; 0.050 mg/kg i.p.,** (Significant activity (strong): C/T > = 175%)
"COC(=O)c1cn(C)c2c1C13CC1CN(C(=O)c1cc4cc(OC)c(OC)c(OC)c4[nH]1)C3=CC2=O (stereo not drawn) [(VI), methyl 2-(5,6,7-trimethoxy-1H-indolz2-carbonyl)-5-methyl-4-oxo-1,2,4,5,8a-hexahydrocyclopropa[c]pyrrolo[3,2-e]indol-7-carboxylate]",toxicity,cancer,very low toxicity
same,anticarcinogenic activity in vivo,cancer,high anticarcinogenic activity in vivo
same,%C/T (average survival of the tested group/average survival of the controls and untreated ones),P388 leukemic tumor; 0.500 mg/kg i.p.,210.9%
same,%C/T activity class (significance mark),P388 leukemic tumor; 0.500 mg/kg i.p.,** (Significant activity (strong): C/T > = 175%)
"COC(=O)c1cn(C)c2c1C13CC1CN(C(=O)c1cc4cc(NC(=O)c5cc6ccccc6o5)ccc4[nH]1)C3=CC2=O (stereo not drawn) [(IV), methyl 2-[5-[(benzofuran-2-ylcarbonyl)amino]-1H-indol-2-carbonyl]-5-methyl-4-oxo,1,2,4,5,8,8,a-hexahydrocyclopropa[c]pyrrolo[3,2-e]indol-7-carboxylate]",toxicity,cancer,very low toxicity
same,anticarcinogenic activity in vivo,cancer,high anticarcinogenic activity in vivo
same,%C/T (average survival of the tested group/average survival of the controls and untreated ones),P388 leukemic tumor; 0.300 mg/kg i.p.,251.1%
same,%C/T activity class (significance mark),P388 leukemic tumor; 0.300 mg/kg i.p.,** (Significant activity (strong): C/T > = 175%)
COC(=O)c1cn(C)c2c(OC(=O)c3ccc([N+](=O)[O-])cc3)cc3c(c12)C(CCl)CN3C(=O)c1cc2cc(NC(=O)c3cc4ccccc4o3)ccc2[nH]1 (stereo not drawn) [IIIb],IC50,MEL-28,0.5 ng/mL
same,IC50,P-388,0.02 ng/mL
same,IC50,A-549,0.1 ng/mL
same,IC50,HT-29,0.5 ng/mL
"COC(=O)c1cn(C)c2c(O)cc3c(c12)C(CCl)CN3C(=O)c1cc2cc(NC(=O)c3cc4ccccc4o3)ccc2[nH]1 (stereo not drawn) [Compound (III), methyl 6-{5-[(benzofuran-2-ylcarbonyl)-amino]1H-indol-2-carbonyl}-8-chloromethyl-4-hydroxy-3-methyl-3,6,7,8,tetrahydropyrrolo[3,2-e]indol-1-carboxylate]",toxicity,cancer,very low toxicity
same,anticarcinogenic activity in vivo,cancer,high anticarcinogenic activity in vivo
same,%C/T (average survival of the tested group/average survival of the controls and untreated ones),P388 leukemic tumor; 0.500 mg/kg i.p.,> 391.3%
Cc1c[nH]c2c1C13CC1CN(C(=O)c1cc4cc(NC(=O)c5cc6ccccc6o5)ccc4[nH]1)C3=CC2=O (stereo not drawn) [Adocelesine],tumoral effectiveness versus the natural product,[3],greatly exceeds the natural product in tumoral effectiveness
same,delayed lethality,"[2]; mouse, in vivo",without provoking delayed lethality

# Reference: patent US5786377A, “Pyrrolo[3,2-E]indol derivatives, process for the preparation thereof and applications” (Universidad de Santiago de Compostela, priority 1993, dated 1998)
